Drawing on patent US8420336B2, “Method of bioassaying yokukansan” (priority 2008, dated 2013), this text covers Kd for six compounds.

Each structure is given as a SMILES string. Where two headings read alike, the source gives them in different places.

One assay addresses AMPA receptors. The assay is described as follows: Binding test for test drug to AMPA receptors ([3H]AMPA competition). On the set-up: species or system Wistar rat. The conditions noted are these: labeled ligand of the assay, listed among the conditions. Here is the method: (§1) 20 mg of a test drug (TJ-54 or an extract of the constituent crude drug) was weighed. Distilled water was added to the test drug so as to give a concentration of 20 mg/125 μL (20 mg/100 μL for the extract of the constituent crude drug), and further the resulting solution was diluted to 2-fold with DMSO, which was used as a stock solution. This stock solution was diluted to have each concentration.
(2) Binding Test for Test Drug to AMPA Receptors
20 mL/g of 50 mM Tris-HCl buffer (containing 200 mM KSCN) was added to the cerebral cortex tissue collected from a Wistar rat. […]
(§2) After completion of the incubation, the mixture was filtered through a glass fiber filter (Whatman 1821-915 GF/B, Whatman) using a cell harvester (Brandel MLR-48, Skatron micro-96, Perkin Elmer), and the filter was washed 3 to 6 times with 50 mM Tris-HCl buffer. Then, the radioactivity of [^3H]AMPA on the glass fiber filter was measured using a liquid scintillation counter (Wallac Counter, Perkin Elmer). As for the nonspecific binding, the radioactivity of [^3H]AMPA in the presence of 1000 μM unlabeled L-glutamate was measured. As for the total binding, the radioactivity of [^3H]AMPA in the absence of the test drug was measured. The binding activity of the test drug was evaluated on the basis of the binding inhibition ratio obtained from the above formula. […]

For assay [1], the target named is glutamate binding site of NMDA receptors. Put plainly: Binding test for test drug to glutamate binding site of NMDA receptors ([3H]CGP-39653 competition). On the set-up: species or system Wistar rat. The conditions noted are these: labeled ligand of the assay; listed among the conditions. As for the experimental part: as §1
(4) Binding Test for Test Drug to Glutamate Binding Site of NMDA Receptors
20 mL/g of 50 mM Tris-HCl buffer was added to the cerebral cortex tissue collected from a Wistar rat. The resulting mixture was homogenized, and the homogenate was centrifuged (1,000×g for 10 minutes at 4° C.). […]
as §2, with “[^3H]CGP-39653” for “[^3H]AMPA”, “measured.” for “measured. The binding activity of the test drug was evaluated on the basis of the binding inhibition ratio obtained from the above formula.”

The target in another assay is glutamate receptors. Put plainly: Non-selective binding test for test drug to glutamate receptors ([3H]L-glutamate competition). On the set-up: species or system Wistar rat. The conditions noted are these: labeled ligand of the assay; listed among the conditions of the experiment. Here is the method:
as §1
(1) Non-Selective Binding Test for Test Drug to Glutamate Receptors
20 mL/g of 50 mM Tris-HCl buffer was added to the brain tissue collected from a Wistar rat. […]
as §2, with “[^3H]L-glutamate” for “[^3H]AMPA”, “50” for “1000”, “calculated from” for “evaluated on”, “following” for “basis of the”, “(%).” for “obtained from the above formula.”

Assay [2] addresses T1, glycine binding site of NMDA receptors (Rattus norvegicus, UniProt P35439).
T1 construct: cerebral cortex tissue collected from a Wistar rat; from tissue; host or cells: cerebral cortex of Wistar rat, membrane fraction
Put plainly: Binding test for test drug to glycine binding site of NMDA receptors ([3H]MDL-105519 competition). The note with it: labeled ligand of the assay; listed among the conditions. On the set-up: species or system Wistar rat.
Experimental: 20 mL/g of 50 mM HEPES buffer was added to the cerebral cortex tissue collected from a Wistar rat. The resulting mixture was homogenized, and the homogenate was centrifuged (1,000×g for 10 minutes at 4° C.). Then, the resulting supernatant was collected and centrifuged (20,000×g for 20 minutes at 4° C.) to obtain a pellet. The pellet was resuspended in a buffer and the suspension was centrifuged (8,000×g for 20 minutes at 4° C.). Further, the resulting supernatant was collected and centrifuged (48,000×g for 20 minutes at 4° C.) to obtain a pellet. […]
After completion of the incubation, the mixture was filtered through a glass fiber filter (Whatman 1821-915 GF/B, Whatman) using a cell harvester (Brandel MLR-48, Skatron micro-96, Perkin Elmer), and the filter was washed 3 to 6 times with 50 mM HEPES buffer. Then, the radioactivity of [^3H]MDL-105519 on the glass fiber filter was measured using a liquid scintillation counter (Wallac Counter, Perkin Elmer). As for the nonspecific binding, the radioactivity of [^3H]MDL-105519 in the presence of 10 μM unlabeled MDL-105519 was measured. As for the total binding, the radioactivity of [^3H]MDL-105519 in the absence of the test drug was measured. The binding activity of the test drug was evaluated on the basis of the binding inhibition ratio obtained from the above formula. […]

A further assay deals with kainate receptors. The assay is described as follows: Binding test for test drug to kainate receptors ([3H]kainic acid competition). More on the design: species or system Wistar rat. The conditions noted are these: labeled ligand of the assay; listed among the conditions. Here is the method: as §1
(3) Binding Test for Test Drug to Kainate Receptors
20 mL/g of 50 mM Tris-HCl buffer was added to the brain tissue excluding the cerebellum tissue collected from a Wistar rat. The resulting mixture was homogenized, and centrifugation (48,000×g for 15 minutes at 4° C.) of the homogenate was repeated three times to obtain a membrane fraction. […]
Then, the radioactivity of [^3H]kainic acid on the glass fiber filter was measured using a liquid scintillation counter (Wallac Counter, Perkin Elmer). As for the nonspecific binding, the radioactivity of [^3H]kainic acid in the presence of 1000 μM unlabeled L-glutamate was measured. As for the total binding, the radioactivity of [^3H]kainic acid in the absence of the test drug was measured. The binding activity of the test drug was evaluated on the basis of the binding inhibition ratio obtained from the above formula. […]

Another assay addresses T2, human recombinant mGluR5 (Homo sapiens, UniProt P41594).
T2 construct: purchased Perkin Elmer; host or cells: CHO-K1 cell membranes
The assay is described as follows: Binding test for test drug to metabotropic glutamate receptor mGluR5 ([3H]quisqualic acid competition). The conditions noted are these: labeled ligand of the assay; listed among the conditions.

T2 sequence (P41594 21-1212): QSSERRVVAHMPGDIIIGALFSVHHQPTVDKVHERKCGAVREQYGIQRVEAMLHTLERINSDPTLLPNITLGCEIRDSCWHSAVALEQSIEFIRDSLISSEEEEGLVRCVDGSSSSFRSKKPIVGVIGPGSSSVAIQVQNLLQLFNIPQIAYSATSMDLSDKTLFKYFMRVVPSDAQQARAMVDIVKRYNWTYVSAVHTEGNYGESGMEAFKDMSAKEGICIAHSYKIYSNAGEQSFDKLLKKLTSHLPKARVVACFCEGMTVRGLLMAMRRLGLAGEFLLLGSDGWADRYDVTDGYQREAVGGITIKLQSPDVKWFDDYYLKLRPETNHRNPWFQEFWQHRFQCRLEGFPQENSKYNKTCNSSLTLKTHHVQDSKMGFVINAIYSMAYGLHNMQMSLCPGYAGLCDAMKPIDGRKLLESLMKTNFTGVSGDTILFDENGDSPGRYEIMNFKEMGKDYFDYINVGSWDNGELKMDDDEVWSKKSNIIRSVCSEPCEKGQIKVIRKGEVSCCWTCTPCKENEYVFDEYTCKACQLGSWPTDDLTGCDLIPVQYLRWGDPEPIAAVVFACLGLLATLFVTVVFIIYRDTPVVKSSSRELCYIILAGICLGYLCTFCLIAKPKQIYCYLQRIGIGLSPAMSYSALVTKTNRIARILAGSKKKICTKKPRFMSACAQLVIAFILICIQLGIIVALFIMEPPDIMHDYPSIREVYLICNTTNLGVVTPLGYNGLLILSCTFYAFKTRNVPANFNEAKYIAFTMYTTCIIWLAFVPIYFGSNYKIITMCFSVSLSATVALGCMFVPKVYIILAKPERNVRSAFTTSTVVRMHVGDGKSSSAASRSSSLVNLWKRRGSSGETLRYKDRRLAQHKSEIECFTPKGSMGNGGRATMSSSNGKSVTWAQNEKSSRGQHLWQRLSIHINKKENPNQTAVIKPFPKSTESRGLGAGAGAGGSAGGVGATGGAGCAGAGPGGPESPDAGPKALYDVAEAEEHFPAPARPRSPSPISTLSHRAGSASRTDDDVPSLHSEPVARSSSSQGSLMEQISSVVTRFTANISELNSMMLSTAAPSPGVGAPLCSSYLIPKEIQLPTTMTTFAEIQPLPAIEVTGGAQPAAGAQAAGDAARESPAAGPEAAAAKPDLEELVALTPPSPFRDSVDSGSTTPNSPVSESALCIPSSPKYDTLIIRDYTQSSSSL
Experimental for human recombinant mGluR5: (6) Binding Test for Test Drug to Metabotropic Glutamate Receptor mGluR5
30 μg protein/100 μL of a CHO-K1 cell membrane solution, 20 μL of [^3H]quisqualic acid (final concentration: 0.03 μM) and 1.1 μL of the test drug solution of each concentration were added to a 1 mL tube, and the resulting mixture was incubated at 25° C. for 2 hours. In the control group, a DMSO solution (final concentration: 0.5%) was added, and the resulting mixture was incubated in the same manner.
After completion of the incubation, the mixture was filtered through a glass fiber filter (Whatman 1821-915 GF/B, Whatman) using a cell harvester (Micro 96 FilterMate, Perkin Elmer), and the filter was washed 6 times with 20 mM HEPES buffer. Then, the radioactivity of [^3H]quisqualic acid on the glass fiber filter was measured using a liquid scintillation counter (Wallac Counter). As for the nonspecific binding, the radioactivity of [^3H]quisqualic acid in the presence of 1000 μM unlabeled L-glutamate was measured. As for the total binding, the radioactivity of [^3H]quisqualic acid in the absence of the test drug was measured. The binding activity of the test drug was evaluated on the basis of the binding inhibition ratio obtained from the above formula.
The respective conditions in this experiment are as follows. […]

The Kd is the constant that tells how readily two partners part at equilibrium. In the case of `Cc1onc(O)c1CC(N)C(=O)O` (stereo not drawn) [[^3H]AMPA, α-amino-3-hydroxy-5-methyl-4-isoxazolepropionate], the dissociation constant Kd was 18 nM on AMPA receptors (Kd1, read-out: Kd (Kd1)) and 990 nM on AMPA receptors (Kd2, read-out: Kd (Kd2)). As to `CCCC(=CC(N)C(=O)O)CP(=O)(O)O` (stereo not shown) [[^3H]CGP-39653], the Kd in assay [1] came to 19 nM. On to `N[C@@H](CCC(=O)O)C(=O)O` [[^3H]L-glutamate, L-glutamate], for which the Kd at glutamate receptors amounted to 293 nM. `O=C(O)C(=Cc1c(C(=O)O)[nH]c2cc(Cl)cc(Cl)c12)c1ccccc1` [[^3H]MDL-105519] gave a Kd in assay [2] of 6 nM. In the case of `C=C(C)[C@H]1CN[C@H](C(=O)O)[C@H]1CC(=O)O` [[^3H]kainic acid, kainic acid], the dissociation constant Kd on kainate receptors was found to be 12 nM. Take `N[C@@H](Cn1oc(=O)[nH]c1=O)C(=O)O` [[^3H]quisqualic acid, quisqualic acid]: the Kd at human recombinant mGluR5 is 26 nM.
